This is an account of results in US20060166989A1, “2-naphthamide derivatives” (Bayer Healthcare AG, priority 2002, published 2006).

By melting point is commonly meant the temperature, or range, at which the solid turns liquid.

The target of one series is T1, IP receptor (Homo sapiens, UniProt P43119).
T1 construct: HEL cells were collected with centrifugation and washed with cAMP assay buffer; host or cells: HEL 92.1.7 human erythroleukemia cells
Kind of series: Iloprost-induced cAMP production assay in HEL cells (Assay 2). Format: cell-based. The following applies: read-out: Activity grade assay 2. How it is done:
[Iloprost-Induced cAMP Production Assay in HEL Cells] (Assay 2)
HEL cells were collected with centrifugation and washed with cAMP assay buffer (CAB: Hank's balanced salt solution, 17 mM Hepes, 0.1% bovine serum albumin, 1 mM IBMX, 0.4% DMSO, and 1 mM L-ascorbic acid sodium salt (pH 7.4)). Cells were suspended at the density of 2.5×10^5 cells/ml in CAB, and twenty thousand cells in 80 μl aliquot of cell suspension were put in a well of 96 well plate (Falcon). Then, 10 μl of compound solution diluted with 1% DMSO in CAB or buffer alone was added. The plate was incubated at 37° C. for 30 min. Then, another 10 μl containing 100 nM iloprost in CAB or buffer alone was added and further incubated at 37° C. for 30 min. cAMP content in the well was measured by a cAMP ELISA kit (Applied Biosystems, USA).
Results of Iloprost-induced cAMP production assay (Assay2) are shown in Examples and tables of the Examples below. For practical reasons, the compounds are grouped in three classes of activity as follows: A(=or<)0.1μM<B(=or<)1μM<C

T1 sequence (P43119 whole entry): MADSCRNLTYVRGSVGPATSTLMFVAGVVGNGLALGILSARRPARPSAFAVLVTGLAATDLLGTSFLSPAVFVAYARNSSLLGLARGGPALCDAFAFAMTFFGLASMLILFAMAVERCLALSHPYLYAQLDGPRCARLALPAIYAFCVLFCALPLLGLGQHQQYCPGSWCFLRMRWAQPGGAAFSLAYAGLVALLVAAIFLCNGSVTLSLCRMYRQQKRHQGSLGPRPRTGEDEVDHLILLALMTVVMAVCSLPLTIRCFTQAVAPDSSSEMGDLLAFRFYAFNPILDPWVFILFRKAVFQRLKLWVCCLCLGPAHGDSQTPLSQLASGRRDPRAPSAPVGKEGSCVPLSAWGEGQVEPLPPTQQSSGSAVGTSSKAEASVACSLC

On to `O=C(NC(Cc1ccccc1)C(=O)O)c1ccc2cc(OCc3cc(Cl)cc(Cl)c3)ccc2c1` (stereo not shown) [Example 1-34], for which the melting point was determined as 180 °C. Besides, the IC50 at IP receptor is less than 0.1 µM.
The molecule `O=C(NC(Cc1ccccc1)C(=O)O)c1ccc2cc(OCc3ccc(Br)cc3)ccc2c1` (stereo not shown) [Example 1-53] displayed a melting point of 232 °C. Besides, the IC50 on IP receptor was greater than 1 µM.
With `O=C(NC(Cc1ccc([N+](=O)[O-])cc1)C(=O)O)c1ccc2cc(OCc3ccccc3)ccc2c1` (stereo not shown) [Example 1-46], the melting point lay within 227 to 228 °C. Also, the IC50 at IP receptor is less than 0.1 µM.
As to `O=C(NC(Cc1ccc(C(F)(F)F)cc1)C(=O)O)c1ccc2cc(OCc3ccccc3)ccc2c1` (stereo not shown) [Example 1-3], the melting point is 212 to 214 °C (dec.). For the same molecule, the IC50 on IP receptor was less than 0.1 µM.
`O=C(NC(Cc1ccccc1)C(=O)O)c1ccc2cc(OCCc3ccccn3)ccc2c1` (stereo not shown) [Example 1-78] registered a melting point of 143 °C. On IP receptor, the IC50 is 0.1 to 1 µM.
The like results for `Cc1ccc(COc2ccc3cc(C(=O)NC(Cc4ccccc4)C(=O)O)ccc3c2)cc1` (stereo not shown) [Example 1-56] were, in that order, 212 °C and 0.1 to 1 µM.
`COc1cccc(COc2ccc3cc(C(=O)NC(Cc4ccccc4)C(=O)O)ccc3c2)c1` (stereo not shown) [Example 1-30]: the melting point is 163 °C. Further, on IP receptor, the IC50 was less than 0.1 µM.
Take `Cc1ccc(C)c(COc2ccc3cc(C(=O)NC(Cc4ccccc4)C(=O)O)ccc3c2)c1` (stereo not shown) [Example 1-40]: the melting point worked out at 210 °C. Also, at IP receptor, the IC50 lay within 0.1 to 1 µM.
Consider `O=C(NC(Cc1c[nH]c2ccccc12)C(=O)O)c1ccc2cc(OCc3ccccc3)ccc2c1` (stereo not shown) [Example 1-15], for which, at IP receptor, the IC50 is less than 0.1 µM.
Molecule `O=C(NC(Cc1ccccc1)C(=O)O)c1ccc2cc(OCCc3ccncc3)ccc2c1` (stereo not shown) [Example 1-83] yielded a melting point of 190 °C. Moreover, the IC50 on IP receptor was less than 0.1 µM.
In the case of `O=C(NC(Cc1c[nH]c2ccc(O)cc12)C(=O)O)c1ccc2cc(OCc3ccccc3)ccc2c1` (stereo not shown) [Example 1-49], the melting point is 261 to 262 °C (dec.). Besides, the IC50 on IP receptor is less than 0.1 µM.
`O=C(NC(Cc1ccccc1)C(=O)O)c1ccc2cc(OCc3cccc(Cl)c3)ccc2c1` (stereo not shown) [Example 1-24] gave a melting point of 187 °C. For the same molecule, on IP receptor, the IC50 is less than 0.1 µM.
The molecule `O=C(N[C@@H](Cc1ccccc1)C(=O)O)c1ccc2cc(NCc3ccccc3)ccc2c1` [Example 4-1, N-[6-(benzylamino)-2-naphthoyl]phenylalanine] came in with a melting point of 172 °C. Also, at IP receptor, the IC50 fell in the range of 0.1 to 1 µM.
With `O=C(NC(Cc1cccc(O)c1)C(=O)O)c1ccc2cc(OCc3ccccc3)ccc2c1` (stereo not shown) [Example 1-47], the melting point was found to be 214 °C. The IC50 on IP receptor was less than 0.1 µM.
For the molecule `O=C(NC(Cc1c[nH]c2ncccc12)C(=O)O)c1ccc2cc(OCc3ccccc3)ccc2c1` (stereo not shown) [Example 1-80], the melting point was 275 to 277 °C (dec.). In addition, on IP receptor, the IC50 is less than 0.1 µM.
The like results for `CC(Oc1ccc2cc(C(=O)NC(Cc3ccccc3)C(=O)O)ccc2c1)c1ccccc1` (stereo not shown) [Example 1-60] were, in that order, 170 to 172 °C and 0.1 to 1 µM.
On to `O=C(NC(C(=O)O)C(O)c1ccccc1)c1ccc2cc(OCc3ccccc3)ccc2c1` (stereo not shown) [Example 1-18], for which the IC50 at IP receptor was less than 0.1 µM.
On the same count and under the same terms, then `O=C(NC(Cc1ccccc1C(F)(F)F)C(=O)O)c1ccc2cc(OCc3ccccc3)ccc2c1` (stereo not shown) [Example 1-13], with 0.1 to 1 µM; and `COc1cc(CC(NC(=O)c2ccc3cc(OCc4ccccc4)ccc3c2)C(=O)O)ccc1O` (stereo not shown) [Example 1-17], with less than 0.1 µM.
On the same count and under the same terms, then `COc1ccc(CC(NC(=O)c2ccc3cc(OCc4ccccc4)ccc3c2)C(=O)O)cc1` (stereo not shown) [Example 1-16], with less than 0.1 µM; and `O=C(N[C@@H](Cc1ccccc1)C(=O)O)c1ccc2cc(OCc3ccccc3)ccc2c1` [Example 2-2, N-[6-(benzyloxy)-2-naphthoyl]-L-phenylalanine], with greater than 1 µM.
For the molecule `O=C(NC(Cc1cccc(C(F)(F)F)c1)C(=O)O)c1ccc2cc(OCc3ccccc3)ccc2c1` (stereo not shown) [Example 1-14], the IC50 on IP receptor was less than 0.1 µM.
